Measurements as given in article PMC12586182 (Frontiers in Oncology, 2025).

What was measured:
Assay in all cases: Kinase panel profiling at 1 µmol/L (mobility shift assay, Carna)
Format in all cases: biochemical
Conditions in all cases: 1 µmol/L of BTK inhibitor
AKT1 = molecular target: T1, AKT1 (Homo sapiens, UniProt P31749)
T1 construct: purchased Carna Biosciences

CRIK = molecular target: T2, CRIK (Homo sapiens, UniProt O14578)
T2 construct: purchased Carna Biosciences

EPHA4 = molecular target: T3, EPHA4 (Homo sapiens, UniProt P54764)
T3 construct: purchased Carna Biosciences
T3 sequence (P54764 20-986): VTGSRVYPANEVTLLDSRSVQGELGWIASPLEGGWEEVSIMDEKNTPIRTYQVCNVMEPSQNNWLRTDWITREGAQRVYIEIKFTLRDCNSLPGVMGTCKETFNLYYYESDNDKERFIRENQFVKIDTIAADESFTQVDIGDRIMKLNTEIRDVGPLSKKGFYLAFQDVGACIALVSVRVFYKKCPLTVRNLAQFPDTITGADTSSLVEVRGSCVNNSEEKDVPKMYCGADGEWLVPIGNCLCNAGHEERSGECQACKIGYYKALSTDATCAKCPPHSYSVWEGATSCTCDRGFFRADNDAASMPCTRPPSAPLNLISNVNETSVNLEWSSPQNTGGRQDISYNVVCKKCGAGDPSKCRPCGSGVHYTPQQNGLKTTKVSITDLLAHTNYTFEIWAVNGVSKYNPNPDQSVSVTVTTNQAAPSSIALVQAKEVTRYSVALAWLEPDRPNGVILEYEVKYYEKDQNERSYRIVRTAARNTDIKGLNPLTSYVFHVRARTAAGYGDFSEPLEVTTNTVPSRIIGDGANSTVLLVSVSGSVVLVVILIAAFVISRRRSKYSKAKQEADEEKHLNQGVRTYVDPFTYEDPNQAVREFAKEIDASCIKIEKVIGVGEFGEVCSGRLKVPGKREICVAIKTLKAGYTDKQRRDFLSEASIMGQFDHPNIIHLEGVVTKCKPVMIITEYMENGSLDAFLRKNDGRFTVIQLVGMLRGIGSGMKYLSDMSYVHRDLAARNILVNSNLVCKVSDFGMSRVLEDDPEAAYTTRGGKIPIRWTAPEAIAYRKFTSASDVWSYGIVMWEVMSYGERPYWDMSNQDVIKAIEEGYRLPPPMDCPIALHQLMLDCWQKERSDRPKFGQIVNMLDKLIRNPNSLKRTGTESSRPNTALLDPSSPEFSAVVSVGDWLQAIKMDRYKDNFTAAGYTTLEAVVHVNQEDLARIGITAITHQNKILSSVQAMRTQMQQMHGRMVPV

PKCε = molecular target: T4, PKCε (Homo sapiens, UniProt Q02156)
T4 construct: purchased Carna Biosciences
T4 sequence (Q02156 1-737): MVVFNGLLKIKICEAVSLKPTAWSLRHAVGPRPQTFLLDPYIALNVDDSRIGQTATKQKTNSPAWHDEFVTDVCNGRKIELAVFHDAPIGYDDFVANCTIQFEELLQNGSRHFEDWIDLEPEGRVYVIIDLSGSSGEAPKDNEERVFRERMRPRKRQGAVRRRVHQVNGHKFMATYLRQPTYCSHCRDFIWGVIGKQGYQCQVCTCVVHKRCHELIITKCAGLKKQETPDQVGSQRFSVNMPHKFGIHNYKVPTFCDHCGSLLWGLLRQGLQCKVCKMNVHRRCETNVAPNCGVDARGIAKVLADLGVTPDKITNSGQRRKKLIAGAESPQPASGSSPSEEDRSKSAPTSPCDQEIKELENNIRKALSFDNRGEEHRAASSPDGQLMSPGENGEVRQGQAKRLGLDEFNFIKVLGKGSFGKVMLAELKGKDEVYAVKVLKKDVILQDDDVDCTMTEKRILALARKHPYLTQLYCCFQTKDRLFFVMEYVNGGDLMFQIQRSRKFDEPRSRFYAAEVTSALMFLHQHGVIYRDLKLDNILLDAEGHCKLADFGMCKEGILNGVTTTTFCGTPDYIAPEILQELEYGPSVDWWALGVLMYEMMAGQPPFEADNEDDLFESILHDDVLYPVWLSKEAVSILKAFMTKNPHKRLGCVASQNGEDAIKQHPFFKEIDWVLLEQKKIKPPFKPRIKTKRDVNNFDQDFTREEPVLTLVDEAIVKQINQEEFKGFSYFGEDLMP

AurA/TPX2 = molecular target: T5, AurA/TPX2 (Homo sapiens, UniProt O14965)
T5 construct: purchased Carna Biosciences
T5 sequence (O14965 1-403): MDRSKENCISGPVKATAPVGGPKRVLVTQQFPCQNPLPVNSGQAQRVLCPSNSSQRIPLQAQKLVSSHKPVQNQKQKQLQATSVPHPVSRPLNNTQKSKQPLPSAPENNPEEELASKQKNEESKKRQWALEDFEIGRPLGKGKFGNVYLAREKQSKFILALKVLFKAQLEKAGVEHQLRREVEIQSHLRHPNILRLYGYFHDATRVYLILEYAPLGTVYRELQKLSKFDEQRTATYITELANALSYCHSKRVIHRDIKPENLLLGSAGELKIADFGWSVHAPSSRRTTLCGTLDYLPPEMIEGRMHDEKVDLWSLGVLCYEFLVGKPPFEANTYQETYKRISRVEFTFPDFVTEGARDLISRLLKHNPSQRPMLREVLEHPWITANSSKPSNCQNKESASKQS
T5 sequence (Q9ULW0 1-43 partner limits assumed): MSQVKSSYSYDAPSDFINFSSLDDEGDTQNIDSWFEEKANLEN

SIK = molecular target: T6, SIK (Homo sapiens, UniProt P57059)
T6 construct: purchased Carna Biosciences
T6 sequence (P57059 whole entry): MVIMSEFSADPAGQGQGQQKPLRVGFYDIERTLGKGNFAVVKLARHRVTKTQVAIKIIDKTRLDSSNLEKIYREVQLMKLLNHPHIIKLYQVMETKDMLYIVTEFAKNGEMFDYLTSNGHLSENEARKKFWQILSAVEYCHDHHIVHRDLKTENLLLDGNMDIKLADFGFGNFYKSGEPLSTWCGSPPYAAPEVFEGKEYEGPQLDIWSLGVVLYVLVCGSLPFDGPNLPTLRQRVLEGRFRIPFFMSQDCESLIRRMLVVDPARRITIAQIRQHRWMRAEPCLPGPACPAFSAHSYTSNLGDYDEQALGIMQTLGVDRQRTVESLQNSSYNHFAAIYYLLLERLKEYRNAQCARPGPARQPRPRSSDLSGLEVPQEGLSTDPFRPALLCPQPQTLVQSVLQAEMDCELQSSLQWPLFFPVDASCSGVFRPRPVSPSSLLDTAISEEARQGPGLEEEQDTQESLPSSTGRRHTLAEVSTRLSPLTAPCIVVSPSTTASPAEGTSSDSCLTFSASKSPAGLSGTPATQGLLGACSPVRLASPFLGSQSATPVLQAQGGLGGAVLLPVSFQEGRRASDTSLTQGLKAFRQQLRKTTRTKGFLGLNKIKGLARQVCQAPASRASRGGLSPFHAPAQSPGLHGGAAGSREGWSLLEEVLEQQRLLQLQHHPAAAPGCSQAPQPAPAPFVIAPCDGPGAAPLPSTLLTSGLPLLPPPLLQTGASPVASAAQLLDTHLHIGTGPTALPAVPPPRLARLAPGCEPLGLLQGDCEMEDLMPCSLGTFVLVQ

RET = molecular target: T7, RET (Homo sapiens, UniProt P07949)
T7 construct: purchased Carna Biosciences

NDR2 = molecular target: T8, NDR2 (Homo sapiens, UniProt Q9Y2H1)
T8 construct: purchased Carna Biosciences
T8 sequence (Q9Y2H1 whole entry): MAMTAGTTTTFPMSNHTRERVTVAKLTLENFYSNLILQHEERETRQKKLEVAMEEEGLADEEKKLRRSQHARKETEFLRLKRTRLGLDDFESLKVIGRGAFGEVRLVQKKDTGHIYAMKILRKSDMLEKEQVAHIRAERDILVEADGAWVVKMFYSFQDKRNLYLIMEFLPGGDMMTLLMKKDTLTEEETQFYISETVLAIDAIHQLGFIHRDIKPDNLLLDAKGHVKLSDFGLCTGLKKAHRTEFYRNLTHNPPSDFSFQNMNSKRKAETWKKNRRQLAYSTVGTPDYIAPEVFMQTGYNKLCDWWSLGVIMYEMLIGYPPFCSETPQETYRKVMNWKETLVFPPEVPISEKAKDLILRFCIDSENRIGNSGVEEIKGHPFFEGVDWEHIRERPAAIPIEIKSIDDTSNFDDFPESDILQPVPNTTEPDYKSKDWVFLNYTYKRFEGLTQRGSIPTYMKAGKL

PKR = molecular target: T9, PKR (Homo sapiens, UniProt P19525)
T9 construct: purchased Carna Biosciences
T9 sequence (P19525 whole entry): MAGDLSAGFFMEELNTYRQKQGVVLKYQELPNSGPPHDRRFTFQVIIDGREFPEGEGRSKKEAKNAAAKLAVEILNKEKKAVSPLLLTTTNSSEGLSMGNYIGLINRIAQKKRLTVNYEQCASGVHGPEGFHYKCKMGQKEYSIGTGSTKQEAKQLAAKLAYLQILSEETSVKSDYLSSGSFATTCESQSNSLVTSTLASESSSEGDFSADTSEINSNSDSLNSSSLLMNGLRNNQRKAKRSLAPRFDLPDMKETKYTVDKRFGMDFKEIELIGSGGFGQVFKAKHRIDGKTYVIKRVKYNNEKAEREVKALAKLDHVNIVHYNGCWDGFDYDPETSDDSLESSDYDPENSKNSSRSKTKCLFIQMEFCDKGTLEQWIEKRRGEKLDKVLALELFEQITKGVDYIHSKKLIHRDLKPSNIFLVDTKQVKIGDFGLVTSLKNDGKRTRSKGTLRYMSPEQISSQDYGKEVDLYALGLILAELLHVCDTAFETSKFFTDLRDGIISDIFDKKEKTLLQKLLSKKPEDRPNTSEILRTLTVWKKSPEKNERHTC

ROCK2 = molecular target: T10, ROCK2 (Homo sapiens, UniProt O75116)
T10 construct: purchased Carna Biosciences
T10 sequence (O75116 whole entry): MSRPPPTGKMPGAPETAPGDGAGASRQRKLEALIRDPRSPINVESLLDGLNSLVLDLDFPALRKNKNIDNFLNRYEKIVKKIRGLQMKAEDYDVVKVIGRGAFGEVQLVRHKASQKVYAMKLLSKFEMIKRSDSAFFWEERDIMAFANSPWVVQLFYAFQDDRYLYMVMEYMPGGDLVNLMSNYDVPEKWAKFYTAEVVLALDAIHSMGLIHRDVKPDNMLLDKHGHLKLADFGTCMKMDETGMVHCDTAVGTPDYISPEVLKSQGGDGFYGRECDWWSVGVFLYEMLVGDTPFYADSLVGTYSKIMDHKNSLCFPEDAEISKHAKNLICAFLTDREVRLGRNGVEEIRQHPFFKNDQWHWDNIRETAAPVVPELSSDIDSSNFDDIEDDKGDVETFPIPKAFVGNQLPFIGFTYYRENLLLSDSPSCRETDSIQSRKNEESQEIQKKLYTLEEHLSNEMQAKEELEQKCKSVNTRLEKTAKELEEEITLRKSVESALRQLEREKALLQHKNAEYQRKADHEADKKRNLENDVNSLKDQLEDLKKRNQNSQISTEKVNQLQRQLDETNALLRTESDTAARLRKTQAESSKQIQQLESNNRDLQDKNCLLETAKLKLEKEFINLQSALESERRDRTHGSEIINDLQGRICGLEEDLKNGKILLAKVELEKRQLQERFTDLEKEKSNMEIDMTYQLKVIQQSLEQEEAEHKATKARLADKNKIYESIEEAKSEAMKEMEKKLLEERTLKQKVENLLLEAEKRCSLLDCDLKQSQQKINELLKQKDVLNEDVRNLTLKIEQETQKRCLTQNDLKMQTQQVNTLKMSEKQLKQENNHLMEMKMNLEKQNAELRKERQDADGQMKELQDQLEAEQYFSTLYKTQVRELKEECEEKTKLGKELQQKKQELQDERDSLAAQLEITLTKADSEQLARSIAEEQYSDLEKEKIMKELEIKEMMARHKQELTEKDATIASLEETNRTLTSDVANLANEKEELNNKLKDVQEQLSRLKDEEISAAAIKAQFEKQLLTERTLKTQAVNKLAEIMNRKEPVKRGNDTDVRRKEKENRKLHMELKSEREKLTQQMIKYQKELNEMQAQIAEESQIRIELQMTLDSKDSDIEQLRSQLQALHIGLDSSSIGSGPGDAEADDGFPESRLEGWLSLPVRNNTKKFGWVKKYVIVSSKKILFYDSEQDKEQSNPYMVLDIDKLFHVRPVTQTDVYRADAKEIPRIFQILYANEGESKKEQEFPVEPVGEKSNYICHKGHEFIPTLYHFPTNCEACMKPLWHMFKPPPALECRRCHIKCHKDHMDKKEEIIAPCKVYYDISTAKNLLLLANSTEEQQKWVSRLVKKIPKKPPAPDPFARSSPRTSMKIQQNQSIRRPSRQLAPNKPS

PKD3 = molecular target: T11, PKD3 (Homo sapiens, UniProt O94806)
T11 construct: purchased Carna Biosciences
T11 sequence (O94806 1-890): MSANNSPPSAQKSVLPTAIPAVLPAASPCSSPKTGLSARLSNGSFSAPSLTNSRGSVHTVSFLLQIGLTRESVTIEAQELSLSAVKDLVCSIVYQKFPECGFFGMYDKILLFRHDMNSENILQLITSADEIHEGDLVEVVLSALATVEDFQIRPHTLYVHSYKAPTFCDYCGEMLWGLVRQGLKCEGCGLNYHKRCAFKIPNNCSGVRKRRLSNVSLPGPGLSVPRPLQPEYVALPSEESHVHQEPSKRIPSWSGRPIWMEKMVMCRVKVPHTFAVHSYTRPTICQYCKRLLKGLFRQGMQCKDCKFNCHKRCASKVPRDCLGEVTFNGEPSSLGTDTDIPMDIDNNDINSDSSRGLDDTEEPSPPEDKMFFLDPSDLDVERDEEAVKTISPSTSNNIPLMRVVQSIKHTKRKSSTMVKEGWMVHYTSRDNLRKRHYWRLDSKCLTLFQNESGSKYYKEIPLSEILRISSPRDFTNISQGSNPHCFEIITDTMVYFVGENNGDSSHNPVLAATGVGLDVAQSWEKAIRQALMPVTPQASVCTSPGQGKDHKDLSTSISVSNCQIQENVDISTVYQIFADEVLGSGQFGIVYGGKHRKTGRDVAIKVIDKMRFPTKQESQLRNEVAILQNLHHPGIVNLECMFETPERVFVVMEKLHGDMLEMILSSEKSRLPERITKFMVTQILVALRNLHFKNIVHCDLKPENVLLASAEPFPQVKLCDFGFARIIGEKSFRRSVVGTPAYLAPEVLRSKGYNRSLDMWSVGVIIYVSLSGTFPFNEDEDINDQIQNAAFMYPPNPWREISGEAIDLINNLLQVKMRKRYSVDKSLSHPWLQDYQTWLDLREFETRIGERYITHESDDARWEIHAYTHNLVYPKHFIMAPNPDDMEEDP

FAK = molecular target: T12, FAK (Homo sapiens, UniProt Q05397)
T12 construct: purchased Carna Biosciences

PKCθ = molecular target: T13, PKCθ (Homo sapiens, UniProt Q04759)
T13 construct: purchased Carna Biosciences
T13 sequence (Q04759 whole entry): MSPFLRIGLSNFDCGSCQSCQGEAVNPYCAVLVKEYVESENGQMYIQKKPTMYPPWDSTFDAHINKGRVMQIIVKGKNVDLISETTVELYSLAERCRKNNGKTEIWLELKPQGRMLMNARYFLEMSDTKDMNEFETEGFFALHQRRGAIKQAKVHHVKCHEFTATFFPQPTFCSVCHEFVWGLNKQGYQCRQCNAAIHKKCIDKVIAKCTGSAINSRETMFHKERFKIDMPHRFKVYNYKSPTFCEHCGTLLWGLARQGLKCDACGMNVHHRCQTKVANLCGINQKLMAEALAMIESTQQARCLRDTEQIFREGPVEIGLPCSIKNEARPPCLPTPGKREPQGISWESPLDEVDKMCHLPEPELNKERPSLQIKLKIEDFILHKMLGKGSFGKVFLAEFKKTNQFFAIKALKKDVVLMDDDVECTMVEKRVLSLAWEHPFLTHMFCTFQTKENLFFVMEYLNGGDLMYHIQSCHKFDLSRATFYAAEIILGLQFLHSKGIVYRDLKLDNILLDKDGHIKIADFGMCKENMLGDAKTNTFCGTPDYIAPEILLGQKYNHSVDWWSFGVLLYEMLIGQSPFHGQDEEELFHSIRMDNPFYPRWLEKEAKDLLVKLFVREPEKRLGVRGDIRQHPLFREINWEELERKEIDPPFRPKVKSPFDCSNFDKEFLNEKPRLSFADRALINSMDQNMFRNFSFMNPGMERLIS

SMILES | Percentage inhibition of kinase enzyme activity (AKT1) [%] | Percentage inhibition of kinase enzyme activity (CRIK) [%] | Percentage inhibition of kinase enzyme activity (EPHA4) [%] | Percentage inhibition of kinase enzyme activity (PKCε) [%] | Percentage inhibition of kinase enzyme activity (AurA/TPX2) [%] | Percentage inhibition of kinase enzyme activity (SIK) [%] | Percentage inhibition of kinase enzyme activity (RET) [%] | Percentage inhibition of kinase enzyme activity (NDR2) [%] | Percentage inhibition of kinase enzyme activity (PKR) [%] | Percentage inhibition of kinase enzyme activity (ROCK2) [%] | Percentage inhibition of kinase enzyme activity (PKD3) [%] | Percentage inhibition of kinase enzyme activity (FAK) [%] | Percentage inhibition of kinase enzyme activity (PKCθ) [%]
CC#CC(=O)N1CCC[C@H]1c1nc(-c2ccc(C(=O)Nc3ccccn3)cc2)c2c(N)nccn12 [acalabrutinib] | -6.23 | -5.14 | -3.03 | -8.62 | -4.71 | 0.26 | 13.72 | -6.41 | 7.19 | -2.29 | -2.07 | -1.39 | -8.13
C=CC(=O)N1CCC[C@@H](n2nc(-c3ccc(Oc4ccccc4)cc3)c3c(N)ncnc32)C1 [ibrutinib] | -9.41 | -0.17 | 12.63 | 7.63 | -2.33 | 8.13 | 87.66 | 3.47 | 5.63 | 3.74 | 5.48 | 5.04 | -1.13
O=C(c1ccc(Oc2ccccc2)cc1Cl)c1c[nH]c2ncnc(N[C@@H]3CC[C@@H](CO)OC3)c12 [nemtabrutinib] | -8.43 | -5.26 | 82.34 | 12.58 | 4.98 | 96.56 | 98.99 | -0.25 | 29.57 | 15.55 | 16.29 | 100.03 | -0.21
C=CC(=O)N1CCC([C@@H]2CCNc3c(C(N)=O)c(-c4ccc(Oc5ccccc5)cc4)nn32)CC1 [zanubrutinib] |  |  | 0.04 |  |  |  | 18.89 | 0.50 |  |  |  | 0.0146 | 
COc1ccc(F)cc1C(=O)NCc1ccc(-c2nn([C@@H](C)C(F)(F)F)c(N)c2C(N)=O)cc1 [pirtobrutinib] | -12.80 | -3.77 | 9.50 | 18.12 | 1.13 | -2.28 | 51.77 | -4.16 | 7.39 | 1.18 | 2.18 | 0.91 | 4.94
